From patent US10736971B2, “Peptide-based molecules for modulating car expression or accessibility and uses thereof” (Wright State University, priority 2015, dated 2020)
Residues, ends and D or L forms follow the SMILES beside them.

How the values were obtained:
MAGI-1 PDZ1 domain = MAGI-1 PDZ1 domain (Homo sapiens, UniProt Q96QZ7); assay: Ligand binding assay with purified MAGI-1 PDZ1 domain
Excerpt: Ligand binding assay between TAT-ESAM and purified MAGI-1 PDZ1 or PDZ-3.
MAGI-1 PDZ3 domain was used as a control.

CAR^Ex8 [1] = assay: Western blot / apical surface biotinylation of CAR^Ex8 in MDCK epithelia; assay type: cell-based, canine
Excerpt: (§1) MAGI-1 PDZ binding peptides (BP) can alter CAR^EX8 apical protein levels and AdV infection. […] A) MAGI-1 PDZ1 can rescue CAR^Ex8 expression while PDZ3 decreases CAR^EX8 expression. B) Peptides that bind to PDZ3 will prevent degradation of CAR^Ex8 and rescue CAR^EX8 expression and C) peptides that bind to PDZ1 will prevent rescue of CAR^Ex8 and […] CAR^Ex8 degradation. D) Apical surface-specific biotinylation of polarized MDCK epithelia treated with PDZ1 binding peptide decreases apical levels of CAR^EX8 while PDZ3 binding peptide increase apical CAR^EX8, relative to control. E) Treatment with PDZ3 binding peptide increases while PDZ1 binding peptide decreases AdV5-β-Gal entry as determined by qPCR for viral genomes (Vg). F) AdV5-Cre infection turns cells from red (uninfected) to green (infected) in tDT-mouse airway epithelial cells. Baseline infection in control-peptide treated airway epithelia show an even distribution of uninfected red cells and infected green cells.
(§2) (A) Western blotting of MDCK cells treated with either TAT-CAR^Ex8 or control TAT-CAR^Ex8-AA. […] (C) Polarized MDCK cells were treated with either TAT-CAR^Ex8 or TAT-ESAM and the apical surface subjected to apical surface biotinylation, followed by neutravidin pull down and Western blot of apical surface proteins. […] (E) TAT-cell permeable peptides interrupt MAGI-1-CAR^Ex8 interactions. […]

AdV [2] = assay: qPCR of AdV viral genome (transduction/entry) in MDCK epithelia; assay type: cell-based, canine; conditions: versus control
Excerpt: as §1, §2

CAR^Ex8 [3] = assay: Immunocytochemistry of CAR^Ex8 in polarized MDCK cells; assay type: cell-based, canine; conditions: 50 μM
Excerpt: CAR^Ex8 is localized mainly at the apical surface of polarized MDCK cells. […] Red (CAR^Ex8), Green (MAGI-1, a junctional protein), Blue (nucleus, DAPI). 60× oil immersion confocal microscopy.
(A) CAR^Ex8 (red) localizes mainly at the apical membrane of MDCK epithelial cells (see xz section). […] 60× oil immersion confocal microscopy.

CAR^Ex8 [4] = assay: Western blot of CAR^Ex8 in well differentiated primary human airway epithelia; assay type: cell-based; conditions: versus control
Excerpt: (A) Western blotting from human airway epithelia treated with either TAT-scramble or TAT-PDZ1 peptides (TAT-E6 or TAT-NET1). […] Actin was used to confirm equal protein loading.

AdV [5] = assay: qPCR of AdV viral genome in primary human airway epithelia; assay type: cell-based; conditions: versus control
[6] = tested on: primary human airway epithelia; assay: Epithelial integrity (TER, FITC-Dextran diffusion) and toxicity; assay type: cell-based
Method: In panel (A), epithelial cells were seeded on transwells and treated with a single dose of PBS, TAT-scramble or TAT-PDZ3 (TAT-CAR^Ex8 or TAT-ESAM) peptides (50 μM) daily for 16 days. Transepithelial resistance (TER) was measured every other day for 16 days to indicate the amount of epithelial polarization. […] Each condition represents the average of 4 replicates. (B) FITC-Dextran 4 kDa diffusion across treated epithelia in the absence of EDTA. […] (C) Pre-treatment with EDTA to disrupt tight junctions increased Dextran 4 kDa permeability in all conditions. FITC-Dextran 4 kDa was added to the apical membrane compartment and Dextran present in the basolateral media was measured and quantified. […] FITC-Dextran 70 kDa was added to the apical membrane compartment and Dextran in the basolateral media was measured and quantified.
(A) Primary human airway epithelial cells were treated with a single dose of PBS, TAT-scramble (50 μM), or TAT-PDZ1 peptides (50 μM) each day for 14 days. Transepithelial resistance (TER) was taken every other day for 14 days. No change in TER was noticeable upon treatment with TAT-PDZ1 peptides indicating similar epithelium formation. (B) FITC-Dextran 4 kDa diffusion across treated epithelia in the presence or absence of EDTA. There was no difference in Dextran 4 kDa diffusion among treatments indicating intact epithelial tight junctions. Pre-treatment with EDTA increased Dextran 4 kDa permeability similarly in all conditions indicating disruption of epithelial tight junctions. FITC-Dextran 4 kDa was added to the apical membrane and the diffused Dextran was collected from the basolateral media and measured. (C) There was no difference in Dextran 70 kDa diffusion among treatments indicating intact epithelial tight junctions. FITC-Dextran 70 kDa was added to the apical membrane and the diffused Dextran was collected from the basolateral media and measured.

Sequence of MAGI-1 PDZ1 domain (Q96QZ7 472-554 limits assumed): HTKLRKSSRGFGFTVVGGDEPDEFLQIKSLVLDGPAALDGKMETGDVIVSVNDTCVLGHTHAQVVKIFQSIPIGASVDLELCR

Row | SMILES | Kd (MAGI-1 PDZ1 domain) [nM] | CAR^Ex8 protein level (Western blotting) (CAR^Ex8 [1]) | AdV genomic transduction / entry (qPCR of viral genome) (AdV [2]) | Effect on junctional staining of MAGI-1 (CAR^Ex8 [3]) | Immunolocalization of endogenous CAR^Ex8 (CAR^Ex8 [3]) | CAR^Ex8 protein level (Western blotting) (CAR^Ex8 [4]) | AdV genomic transduction / entry (qPCR of viral genome) (AdV [5]) | Transepithelial resistance (TER) ([6]; 50 μM daily for 16 days, versus control) | FITC-Dextran 70 kDa diffusion across epithelia ([6]; TAT-PDZ3 peptide study) | FITC-Dextran 4 kDa diffusion across epithelia ([6]; absence of EDTA, TAT-PDZ3 peptide study) | Toxicity to epithelia ([6]; primary human airway epithelia)
1 | CC(C)C[C@H](NC(=O)[C@H](CCC(N)=O)NC(=O)[C@@H](NC(=O)[C@H](CCC(=O)O)NC(=O)[C@H](CCCNC(=N)N)NC(=O)[C@H](CCCNC(=N)N)NC(=O)[C@@H](NC(=O)[C@H](CCCNC(=N)N)NC(=O)[C@H](CO)NC(=O)[C@H](CCC(N)=O)NC(=O)[C@@H]1CCCN1C(=O)[C@@H]1CCCN1C(=O)[C@H](CCCNC(=N)N)NC(=O)[C@H](CCCNC(=N)N)NC(=O)[C@H](CCCNC(=N)N)NC(=O)[C@H](CCC(N)=O)NC(=O)[C@H](CCCNC(=N)N)NC(=O)[C@H](CCCNC(=N)N)NC(=O)[C@H](CCCCN)NC(=O)[C@H](CCCCN)NC(=O)[C@H](CCCNC(=N)N)NC(=O)CN)[C@@H](C)O)[C@@H](C)O)C(=O)O [TAT-E6] (H-GRKKRRQRRRPPQSRTRRETQL-OH; N-terminus and C-terminus assumed) | 15 ± 4 | marked decrease | significant decrease | minor to no effect | delocalization of CAR^Ex8 to the nuclear compartment | marked decrease | significant decrease |  |  |  | 
2 | CC(C)C[C@H](NC(=O)[C@H](CO)NC(=O)CNC(=O)[C@H](C)NC(=O)[C@H](CCC(N)=O)NC(=O)[C@H](CO)NC(=O)[C@H](CCC(N)=O)NC(=O)[C@H](C)NC(=O)[C@H](CCC(N)=O)NC(=O)[C@@H]1CCCN1C(=O)[C@@H]1CCCN1C(=O)[C@H](CCCNC(=N)N)NC(=O)[C@H](CCCNC(=N)N)NC(=O)[C@H](CCCNC(=N)N)NC(=O)[C@H](CCC(N)=O)NC(=O)[C@H](CCCNC(=N)N)NC(=O)[C@H](CCCNC(=N)N)NC(=O)[C@H](CCCCN)NC(=O)[C@H](CCCCN)NC(=O)[C@H](CCCNC(=N)N)NC(=O)CN)C(=O)N[C@H](C(=O)O)C(C)C [TAT-ESAM] (H-GRKKRRQRRRPPQAQSQAGSLV-OH; N-terminus and C-terminus assumed) |  |  |  |  |  |  |  | No difference | no difference | no difference | no overt toxicity
